How the values were obtained:
Type in all cases: biochemical
MMP-3 = biological target: T1, MMP-3 (Homo sapiens, UniProt P08254); test: Automated MMP Profiling Assay, MMP-3 fluorogenic; details: for IC50: 96-well automated, P218
T1 construct: Truncated Prostromelysin-257 was expressed in a soluble form in E.coli; made in house; host or cells: E. coli
Text: This assay with each invention compound was run with the three enzymes MMP-3, MMP-9 and MMP-2 in parallel as adapted for a 96-well microtitre plate using a Hamilton A® workstation.

MMP-9 = biological target: T2, MMP-9 (Homo sapiens, UniProt P14780); test: Automated MMP Profiling Assay, MMP-9 fluorogenic; details: for IC50: 96-well automated, P218
T2 construct: from tissue; host or cells: human polymorphonuclear leukocytes (PMN) from whole blood (New York Blood Center), PMA-stimulated supernatant
T2 sequence (P14780 107-707 limits assumed): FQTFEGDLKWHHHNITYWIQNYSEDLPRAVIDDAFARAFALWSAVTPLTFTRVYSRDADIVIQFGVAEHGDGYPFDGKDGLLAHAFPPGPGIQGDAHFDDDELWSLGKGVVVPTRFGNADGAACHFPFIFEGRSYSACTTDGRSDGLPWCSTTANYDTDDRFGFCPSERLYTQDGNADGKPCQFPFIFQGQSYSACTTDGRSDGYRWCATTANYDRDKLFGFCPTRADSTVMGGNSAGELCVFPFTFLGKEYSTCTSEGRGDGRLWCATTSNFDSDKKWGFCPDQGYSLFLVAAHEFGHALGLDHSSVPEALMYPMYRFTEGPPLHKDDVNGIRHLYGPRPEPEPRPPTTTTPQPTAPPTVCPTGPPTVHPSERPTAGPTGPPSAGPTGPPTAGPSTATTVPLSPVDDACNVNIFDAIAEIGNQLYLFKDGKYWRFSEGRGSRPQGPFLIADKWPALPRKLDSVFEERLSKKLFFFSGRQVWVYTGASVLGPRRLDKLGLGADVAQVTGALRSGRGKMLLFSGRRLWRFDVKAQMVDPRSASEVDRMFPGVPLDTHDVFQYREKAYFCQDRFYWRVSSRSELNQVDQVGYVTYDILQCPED
Method: Briefly, polymorphonuclear leukocytes (PMN) preparations were isolated as described above from 3 or more units of freshly drawn whole blood obtained from the New York Blood Center (New York, N.Y.). Cells were resuspended in phosphate buffered saline (PBS) containing 100 ng/ml phorbol myristate acetate (PMA) in the presence of 50 mM diisopropylfluorophospate (DFP), 1 μg/ml leupeptin and aprotinin, and 1 mg/ml catalase for 1 hr at 37° C. Supernatants were collected by centrifugation (300×g) and the samples were frozen at -70° C. All chromatographic methods were performed at 4° C. Thawed samples were concentrated 5-fold using an Amicon chamber equipped with a YM-10 membrane. The concentrate was pressure dialyzed against 0.02M Tris-HCl, 0.1M NaCl, 1 mM CaCl2, 1 μM ZnCl2, 0.001% Brij-35, 0.02% sodium azide (NaN3), pH 7.5 and applied to DEAE ion exchange chromatography resin which was previously equilibrated with the same buffer at a flow rate of 0.4 ml/min. The column was extensively washed with the same buffer and gelatinase was eluted as 4 ml fractions from the column with 0.02M Tris-HCl, 0.5M NaCl, 1 mM CaCl2, 1 μM ZnCl2, 0.001% Brij-35, 0.02% NaN3, pH 7.5. Gelatinase containing fractions were observed by gelatin zymography (see below), loaded onto a gelatin agarose affinity resin and washed with the same buffer. Gelatinase activity was eluted at a flow rate of 1 ml/min from the column as 1 ml fractions with 0.02M Tris-HCl, 1M NaCl, 1 mM CaCl2, 1 μM ZnCl2, 0.001% Brij-35, 0.02% NaN3, pH 7.5 containing 10% dimethyl sulfoxide (DMSO). The fractions containing gelatinase activity were pooled and dialyzed against 0.005M Tris-HCl, 5 mM NaCl, 0.5 mM CaCl2, 0.1 μM ZnCl2, 0.001% Brij-35, pH 7.4. The protein content associated with material was determined with a micro-BCA assay (Pierce, Rockford, Ill.), lyophilized and reconstituted to a desired working concentration (100 μg/ml).
This assay was run with a protocol analogous to that reported for MMP-3 inhibition using the synthetic peptide P218 and each of the three enzymes and measuring quenched fluorescence. This assay with each invention compound was run with the three enzymes MMP-3, MMP-9 and MMP-2 in parallel as adapted for a 96-well microtitre plate using a Hamilton A® workstation.

MMP-2 = biological target: T3, MMP-2 (Homo sapiens, UniProt P08253); test: Automated MMP Profiling Assay, MMP-2 fluorogenic; details: for IC50: 96-well automated, P218, read-out: MMP-2 Fluorogenic IC50 (profiling)
T3 sequence (P08253 110-660): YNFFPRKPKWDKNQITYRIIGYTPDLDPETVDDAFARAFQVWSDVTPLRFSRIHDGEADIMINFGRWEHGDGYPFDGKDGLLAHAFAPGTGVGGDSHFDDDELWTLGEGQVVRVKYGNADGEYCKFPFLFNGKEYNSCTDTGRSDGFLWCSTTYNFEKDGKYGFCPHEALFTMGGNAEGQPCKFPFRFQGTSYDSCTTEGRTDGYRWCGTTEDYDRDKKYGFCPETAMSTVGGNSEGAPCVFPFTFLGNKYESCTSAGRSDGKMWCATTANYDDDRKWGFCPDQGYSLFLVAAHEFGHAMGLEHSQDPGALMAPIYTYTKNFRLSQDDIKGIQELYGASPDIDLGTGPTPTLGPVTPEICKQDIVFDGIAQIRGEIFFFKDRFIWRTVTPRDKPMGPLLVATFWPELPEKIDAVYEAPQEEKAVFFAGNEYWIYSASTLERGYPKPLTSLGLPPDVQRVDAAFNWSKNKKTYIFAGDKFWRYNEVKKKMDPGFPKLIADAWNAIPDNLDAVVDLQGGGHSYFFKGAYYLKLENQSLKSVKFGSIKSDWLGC

T1 sequence (P08254 100-274 limits assumed): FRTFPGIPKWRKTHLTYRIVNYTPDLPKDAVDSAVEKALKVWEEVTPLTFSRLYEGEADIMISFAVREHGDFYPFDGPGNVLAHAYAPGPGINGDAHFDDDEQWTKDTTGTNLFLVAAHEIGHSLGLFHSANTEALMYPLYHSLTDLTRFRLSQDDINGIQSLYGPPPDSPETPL

Structure (SMILES)	IC50 (MMP-3)	IC50 (MMP-9)	IC50 (MMP-2)	inhibition at 5 µM (MMP-3)	inhibition at 5 µM (MMP-9)	inhibition at 5 µM (MMP-2; at 5 μM)
COC(=O)c1cc(F)ccc1SCC(CC(=O)c1ccc(-c2ccc(Cl)cc2)cc1)C(=O)O (stereo not drawn) [Example 434, [1,1'-Biphenyl]-4-butanoic acid, 4'-chloro-α-[[[4-fluoro-2-(methoxycarbonyl)phenyl]thio]methyl]-γ-oxo-]	254 nM	1140 nM	61 nM			
O=C(O)C1=CCCC1C(=O)c1ccc(-c2ccc(Cl)cc2)cc1 (stereo not drawn) [Example 439, 1-Cyclopentene-1-carboxylic acid, 5-[(4'-chloro[1,1'-biphenyl]-4-yl)carbonyl]-]				0%	3%	24%
O=C(CC(CN1C(=O)c2ccccc2C1=O)C(=O)O)c1ccc(-c2ccc(Cl)cc2)cc1 (stereo not drawn) [Example 276, 2H-Isoindole-2-propanoic acid, α-[2-(4'-chloro[1,1'-biphenyl]-4-yl)-2-oxoethyl]-1,3-dihydro-1,3-dioxo-]	262 nM	275 nM	39 nM			
CCCCCOc1ccc(-c2ccc(C(=O)[C@H]3CC[C@@H](Sc4ccccc4)[C@@H]3C(=O)O)cc2)cc1 (single isomer, unassigned) [Example 319, Cyclopentanecarboxylic acid, 2-[[4'-(pentyloxy)[1,1'-biphenyl]-4-yl]carbonyl]-5-(phenylthio)-, (1α,2β,5β)-(+)-]	30 nM	197 nM	4.1 nM			
O=C(CC(CCCc1ccccc1)C(=O)O)c1ccc(-c2ccc(OCc3ccncc3)cc2)cc1 (stereo not drawn) [Example 111, [1,1'-Biphenyl]-4-butanoic acid, γ-oxo-α-(3-phenylpropyl)-4'-(4-pyridinylmethoxy)-]	18 nM	4730 nM	3.9 nM			
O=C(O)[C@H]1[C@H](CSc2cccs2)CC[C@@H]1C(=O)c1ccc(-c2ccc(Cl)cc2)cc1 (relative stereo) [Example 369, Cyclopentanecarboxylic acid, 2-[(4'-chloro[1,1'-biphenyl]-4-yl)carbonyl]-5-[(2-thienylthio)methyl]-, (1α,2β,5β)-]	54 nM	139 nM	37 nM			
CC(C)COc1ccc(-c2ccc(C(=O)CC(CCCc3ccccc3)C(=O)O)cc2)cc1 (stereo not drawn) [Example 94, [1,1'-Biphenyl]-4-butanoic acid, 4'-(2-methylpropoxy)-γ-oxo-α-(3-phenylpropyl)-]	224 nM	1850 nM	155 nM			
O=C(O)[C@H]1CN(C(=O)OCc2ccccc2)C[C@@H]1C(=O)c1ccc(-c2ccc(Cl)cc2)cc1 (relative stereo) [Example 174, 1,3-Pyrrolidinecarboxylic acid, 4-[(4'-chloro[1,1'-biphenyl]-4-yl)carbonyl]-1,-(phenylmethyl) ester, trans-]	144 nM	522 nM	56 nM			
CCCCCOc1ccc(-c2ccc(C(=O)CC(CCCc3ccccc3)C(=O)O)cc2)cn1 (stereo not drawn) [Example 71, Benzenepentanoic acid, α-[2-oxo-2-[4-[6-(pentyloxy)-3-pyridinyl]phenyl]ethyl]-]	1160 nM		969 nM		24%	
O=C(CC(CCc1cccc(I)c1)C(=O)O)c1ccc(-c2ccc(Cl)cc2)cc1 (stereo not drawn) [Example 127, [1,1'-Biphenyl]-4-butanoic acid, 4'-chloro-α[2-(3-iodophenyl)ethyl]-γ-oxo-]	605 nM	1220 nM	40 nM			
CCCCCCOc1ccc(-c2ccc(C(=O)C3CCC=C3C(=O)O)cc2)cc1 (stereo not drawn) [Example 443, 1-Cyclopentene-1-carboxylic acid, 5-[[4'-(hexyloxy)[1,1'-biphenyl]-4-yl]carbonyl]-]			4610 nM	20%	16%	
O=C(CC(CCCc1ccccc1)C(=O)O)c1ccc(-c2ccc(OCc3ccc(F)cc3)cc2)cc1 (stereo not drawn) [Example 107, [1,1'-Biphenyl]-4-butanoic acid, 4'-[(4-fluorophenyl)methoxy]-γ-oxo-α-(3-phenylpropyl)-]	32 nM		16 nM		34%	

Reference: US5789434A, “Derivatives of substituted 4-biarylbutyric acid as matrix metalloprotease inhibitors” (priority 1995, dated 1998)
